Test: recombinant barcode read abundance after kanamycin selection (control-corrected) (log10(CPM+1)); higher = more efficient recombination; sequences stand for … in AGTGCAGAGAAAATCGGCCAGTTTTCTCTGCCTGCAGTCCGCATGCCGT…AGATTTATGCAGCGGACTGCCTTTCTCCCAAAGTGATAAACCGGACAGTATCATGGACCGGTTTTCCCGGTAATCCGTATTTGCAAGGTTGGTTTCACT; site = the 11-nt target
Method in brief: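 In a pooled screen in E. coli, targets were paired with target-binding loops of the IS621 bridge RNA. Each oligo carried a promoter, a target, a barcode and the first 104 bridge RNA bases driven by J23119, and was Gibson-cloned into a vector holding the remaining 73 bp and a T7-inducible recombinase before co-electroporation with a donor plasmid. Duplicate platings went onto chloramphenicol/ampicillin LB agar as the control or onto chloramphenicol/ampicillin/kanamycin with 0.1 mM IPTG. Recombination efficiency is the averaged, control-corrected count per million of barcodes at recombinant junctions, given as log10(CPM+1).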
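Note: IS621 recombinase and bridge RNA in Escherichia coli cells.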

| Sequence | recombinant barcode read abundance (log10) |
| --- | --- |
| GGAGGTACTTGGGTTCTAACCTGTTGCCT (site GGAGGTACTAG) | 1.17 |
| GGAGGTCCTTGGGTTCTAACCTGTTGCTA (site GGAGGTCCTTA) | 2.08 |
| GGAGGTCCTTGGGTTCTAACCTGTTGCTA (site TAAGGTCCTTA) | 0.0399 |
| GGAGTACCTTGGGTTCTAACCTGTTGCAT (site CCTCATACTTG) | 0.0895 |
| GGAGTACCTTGGGTTCTAACCTGTTGCAT (site GGAGTACCTAT) | 2.12 |
| GGAGTTGCTTGGGTTCTAACCTGTTGCCT (site GGAGATTCTAG) | 0.273 |
| GGAGTTGCTTGGGTTCTAACCTGTTGCCT (site GGAGTTGCTAG) | 2.27 |
| GGATACACTTGGGTTCTAACCTGTTGCCT (site GGATACACTAG) | 2.06 |
| GGATACACTTGGGTTCTAACCTGTTGCCT (site GGTTACACTAG) | 0.395 |
| GGATCCACTTGGGTTCTAACCTGTTGCCA (site GGATACACTTG) | 0.049 |
| GGATCCACTTGGGTTCTAACCTGTTGCCA (site GGATCCACTTG) | 0.117 |
| GGATCCACTTGGGTTCTAACCTGTTGCCA (site GGATGCACTTG) | 0.0631 |
| GGATCCACTTGGGTTCTAACCTGTTGCCA (site GGATTCACTTG) | 0.0388 |
| GGATTCCCTTGGGTTCTAACCTGTTGCCA (site GGAGTCCCTTC) | 0.242 |
| GGATTCCCTTGGGTTCTAACCTGTTGCCA (site GGATTCCCTTG) | 1.15 |
| GGATTTACTTGGGTTCTAACCTGTTGCCT (site GGATATACTAG) | 0.0849 |
| GGATTTACTTGGGTTCTAACCTGTTGCCT (site GGATTTACTAG) | 0.276 |
| GGCAAGACTTGGGTTCTAACCTGTTGCCT (site GGAAAGACTAG) | 0 |
| GGCAAGACTTGGGTTCTAACCTGTTGCCT (site GGCAAGACTAG) | 0.185 |
| GGCAAGACTTGGGTTCTAACCTGTTGCCT (site GGGAAGACTAG) | 0.154 |
| GGCAAGACTTGGGTTCTAACCTGTTGCCT (site GGTAAGACTAG) | 0.0715 |
| GGCACGGCTTGGGTTCTAACCTGTTGCCT (site GGCACAGCTAG) | 0.519 |
| GGCACGGCTTGGGTTCTAACCTGTTGCCT (site GGCACCGCTAG) | 0.0995 |
| GGCACGGCTTGGGTTCTAACCTGTTGCCT (site GGCACGGCTAG) | 0.134 |
| GGCACGGCTTGGGTTCTAACCTGTTGCCT (site GGCACTGCTAG) | 0.11 |
| GGCAGGTCTTGGGTTCTAACCTGTTGCTT (site GGCAGATCTAA) | 0.163 |

| Sequence | recombinant barcode read abundance (log10) |
| --- | --- |
| GGCAGGTCTTGGGTTCTAACCTGTTGCTT (site GGCAGCTCTAA) | 0.0728 |
| GGCAGGTCTTGGGTTCTAACCTGTTGCTT (site GGCAGGTCTAA) | 0.795 |
| GGCAGGTCTTGGGTTCTAACCTGTTGCTT (site GGCAGTTCTAA) | 0.044 |
| GGCAGTTCTTGGGTTCTAACCTGTTGCTT (site GGCAGATCTAA) | 0.0437 |
| GGCAGTTCTTGGGTTCTAACCTGTTGCTT (site GGCAGCTCTAA) | 0.0661 |
| GGCAGTTCTTGGGTTCTAACCTGTTGCTT (site GGCAGGTCTAA) | 0.0765 |
| GGCAGTTCTTGGGTTCTAACCTGTTGCTT (site GGCAGTTCTAA) | 0.0537 |
| GGCCCCTCTTGGGTTCTAACCTGTTGCCG (site CGCGCCTCTCG) | 0.368 |
| GGCCCCTCTTGGGTTCTAACCTGTTGCCG (site GGCCCCTCTCG) | 1.8 |
| GGCCGAACTTGGGTTCTAACCTGTTGCCT (site AGCCGAACTAG) | 0.112 |
| GGCCGAACTTGGGTTCTAACCTGTTGCCT (site CGCCGAACTAG) | 0.0639 |
| GGCCGAACTTGGGTTCTAACCTGTTGCCT (site GGCCGAACTAG) | 0.211 |
| GGCCGAACTTGGGTTCTAACCTGTTGCCT (site TGCCGAACTAG) | 0.144 |
| GGCCGGGCTTGGGTTCTAACCTGTTGCGG (site GCCCGGGCTCC) | 0.286 |
| GGCCGGGCTTGGGTTCTAACCTGTTGCGG (site GGCCGGGCTCC) | 0.906 |
| GGCCTCCCTTGGGTTCTAACCTGTTGCAT (site CGCCTCCCTAT) | 0.0328 |
| GGCCTCCCTTGGGTTCTAACCTGTTGCAT (site GGCCTCCCTAT) | 0.743 |
| GGCGACCCTTGGGTTCTAACCTGTTGCCT (site GGCGACCCTAG) | 0.99 |
| GGCGACCCTTGGGTTCTAACCTGTTGCCT (site GGCGTCACTAG) | 0.143 |
| GGCGAGTCTTGGGTTCTAACCTGTTGCTA (site GACGAGTCTTA) | 1.4 |
| GGCGAGTCTTGGGTTCTAACCTGTTGCTA (site GGCGAGTCTTA) | 1.64 |
| GGCGCATCTTGGGTTCTAACCTGTTGCCT (site GGCGCATCTAG) | 0.417 |
| GGCGCATCTTGGGTTCTAACCTGTTGCCT (site GGCGCGTCTAG) | 0.207 |
| GGCGGAGCTTGGGTTCTAACCTGTTGCCG (site CTGCACCCTTA) | 0.0863 |
| GGCGGAGCTTGGGTTCTAACCTGTTGCCG (site GGCGGAGCTCG) | 1.27 |
| GGCGGCTCTTGGGTTCTAACCTGTTGCCT (site ACATAAGCTTA) | 0.103 |

| Sequence | recombinant barcode read abundance (log10) |
| --- | --- |
| GGCGGCTCTTGGGTTCTAACCTGTTGCCT (site GGCGGCTCTAG) | 1.42 |
| GGCTATGCTTGGGTTCTAACCTGTTGCCT (site GACTATGCTAG) | 0.143 |
| GGCTATGCTTGGGTTCTAACCTGTTGCCT (site GCCTATGCTAG) | 0.106 |
| GGCTATGCTTGGGTTCTAACCTGTTGCCT (site GGCTATGCTAG) | 0.175 |
| GGCTATGCTTGGGTTCTAACCTGTTGCCT (site GTCTATGCTAG) | 0.0729 |
| GGCTGAGCTTGGGTTCTAACCTGTTGCCT (site GACTGAGCTAC) | 0.0838 |
| GGCTGAGCTTGGGTTCTAACCTGTTGCCT (site GGCTGAGCTAG) | 0.856 |
| GGCTGATCTTGGGTTCTAACCTGTTGCCT (site AGCTGATCTAG) | 0.126 |
| GGCTGATCTTGGGTTCTAACCTGTTGCCT (site CGCTGATCTAG) | 0.309 |
| GGCTGATCTTGGGTTCTAACCTGTTGCCT (site GGCTGATCTAG) | 0.382 |
| GGCTGATCTTGGGTTCTAACCTGTTGCCT (site TGCTGATCTAG) | 0.216 |
| GGCTGCACTTGGGTTCTAACCTGTTGCCT (site GGCGGTACTAG) | 0.504 |
| GGCTGCACTTGGGTTCTAACCTGTTGCCT (site GGCTGCACTAG) | 1.17 |
| GGCTGGGCTTGGGTTCTAACCTGTTGCCG (site GGCTGGGCTCG) | 0.125 |
| GGCTGGGCTTGGGTTCTAACCTGTTGCCG (site GGTTGGGCTCT) | 0.194 |
| GGCTGTTCTTGGGTTCTAACCTGTTGCCT (site GACTGTTCTAG) | 0.195 |
| GGCTGTTCTTGGGTTCTAACCTGTTGCCT (site GCCTGTTCTAG) | 0.425 |
| GGCTGTTCTTGGGTTCTAACCTGTTGCCT (site GGCTGTTCTAG) | 0.334 |
| GGCTGTTCTTGGGTTCTAACCTGTTGCCT (site GTCTGTTCTAG) | 0.242 |
| GGCTTCCCTTGGGTTCTAACCTGTTGCCT (site GGCATCCCTAG) | 0.299 |
| GGCTTCCCTTGGGTTCTAACCTGTTGCCT (site GGCCTCCCTAG) | 0.855 |
| GGCTTCCCTTGGGTTCTAACCTGTTGCCT (site GGCGTCCCTAG) | 0.141 |
| GGCTTCCCTTGGGTTCTAACCTGTTGCCT (site GGCTTCCCTAG) | 0.415 |
| GGCTTGACTTGGGTTCTAACCTGTTGCCT (site CCAGGTGCTCC) | 0.304 |
| GGCTTGACTTGGGTTCTAACCTGTTGCCT (site GGCTTGACTAG) | 0.694 |
